The results in this text go back to ChEMBL document CHEMBL5352382, “Synthesis and evaluation of imidazo[1,2-a]pyrazine derivatives as small molecule Gαq/11 inhibitors against uveal melanoma” (Eur J Med Chem, 2022).

Series [1] addresses GNAQ/GNA11 (Homo sapiens) (UniProt P50148+P29992). As to the kind of experiment: Inhibition of Galphaq/11 (unknown origin) expressed in CHO-M1 cells at 10 uM preincubated for 1 hr followed by carbachol stimulation for 30 mins and measured after 1 hr by IP1 accumulation based HTRF assay relative to control. The format is cell-based. Particulars: time 150.0 min. (In general: TR-FRET usually uses a lanthanide donor and a delayed reading to cut background.)

Series [2] in a line: Antiproliferative activity against human MP41 cells assessed as reduction in cell viability measured after 72 hrs by CCK-8 method. The class given is functional, cell-based. Particulars: MP41, 72 h. In general terms: Tetrazolium dyes change colour on reduction, which living cells bring about.
Series [3] is described as follows: Antiproliferative activity against human 921 cells assessed as reduction in cell viability measured after 72 hrs by CCK-8 method. Particulars: Homo sapiens, 921, 72 h. The format is functional, cell-based.
The test system of the next series is HEK-293T. Description: Cytotoxicity against HEK293T cells assessed as reduction in cell viability at upto 10 uM measured after 72 hrs by CCK-8 method. The format is toxicity, cell-based. Particulars: human.
The next series deals with BEAS-2B. As to the kind of experiment: Cytotoxicity against human BEAS-2B cells assessed as reduction in cell viability at upto 10 uM measured after 72 hrs by CCK-8 method. The format is toxicity, cell-based.

Where only a bound is given, the exact number is not on record here.

In turn, `CC[C@H](C)[C@H](N)C(=O)N1CCn2cc(-c3cccc(Br)c3)nc2[C@@H]1CC1CCCCC1` gave an inhibition in series [1] of 21.9%. For the same molecule, the IC50 in series [2] was determined as 10.6 µM; in series [3] it was 8.4 µM.
For the molecule `CC[C@H](C)[C@H](N)C(=O)N1CCn2cc(-c3ccc4c(c3)OCO4)nc2[C@@H]1CC1CCCCC1`, the inhibition in series [1] came to 20.2%. Moreover, the IC50 in series [2] turned out to be 12.8 µM; in series [3], 18.5 µM.
`CC[C@H](C)[C@H](N)C(=O)N1CCn2cc(-c3cccc(F)c3)nc2[C@@H]1CC1CCCCC1` came in with an inhibition in series [1] of 17.8%. The IC50 came to 19.8 µM in series [2] and 5 µM in series [3].
For `CC[C@H](C)[C@H](N)C(=O)N1CCn2cc(-c3ccc4ccccc4c3)nc2[C@@H]1CC1CCCCC1` the same measures were 13.1%, 15.5 µM and 18.8 µM.
Consider `CC[C@H](C)[C@H](N)C(=O)N1CCn2cc(-c3cccc(C(=O)OC)c3)nc2[C@@H]1CC1CCCCC1`, for which the inhibition in series [1] was found to be 4.1%. In addition, the IC50 is 16.2 µM in series [2] and 25 µM in series [3].
In turn, `N[C@H](CN1CCn2cc(-c3ccc4c(c3)CCCC4)nc2[C@@H]1CC1CCCCC1)C1CCCCC1` showed an inhibition in series [1] of 12.2%. For the same molecule, the half-maximal inhibitory concentration (IC50) turned out to be 5.9 µM in series [2] and 4.1 µM in series [3]. In addition, the Activity result in the series with HEK-293T and in the series with BEAS-2B was “Toxic” in each case.
In turn, `CCC[C@H](N)CN1CCn2cc(-c3ccc4c(c3)CCCC4)nc2[C@@H]1CC1CCCCC1` displayed an inhibition in series [1] of 15.9%. The half-maximal inhibitory concentration (IC50) in series [2] came out at 9 µM; in series [3] it was 2.8 µM.
For `CC[C@H](C)[C@H](N)C(=O)N1CCn2cc(-c3ccccc3Cl)nc2[C@@H]1CC1CCCCC1`, the inhibition in series [1] was found to be 24.4%. The IC50 was 11.6 µM in series [2] and 7.9 µM in series [3].
The like results for `CC[C@H](C)[C@H](N)C(=O)N1CCn2cc(-c3cccc(C)c3C)nc2[C@@H]1CC1CCCCC1` were, in that order, 13.7%, 12.8 µM and 7 µM.
As for `CCC[C@H]1c2nc(-c3ccc4c(c3)CCCC4)cn2CCN1C(=O)[C@@H](N)[C@@H](C)CC`, the inhibition in series [1] stood at 5.2%. Moreover, the values for the IC50 in series [2] and in series [3] were 18.4 µM and 12.6 µM, respectively.
For the molecule `CC[C@H](C)[C@H](N)C(=O)N1CCn2cc(-c3cccc(C)c3)nc2[C@@H]1CC1CCCCC1`, in series [1], the inhibition turned out to be 29.5%. The IC50 in series [2] stood at 6.2 µM; in series [3] it was 24.3 µM.
The like results for `CC[C@H](C)[C@H](N)C(=O)N1CCn2cc(-c3cc(Cl)c(Cl)c(Cl)c3)nc2[C@@H]1CC1CCCCC1` were, in that order, 13.2%, 7.8 µM and 5.9 µM.
For `CC[C@H](C)[C@H](N)C(=O)N1CCn2cc(-c3ccc4c(c3)CCCC4)nc2[C@H]1CC(C)C` the same measures were 3.6%, 13.9 µM and 8.3 µM.
In series [1], `CC[C@H](C)[C@H](N)C(=O)N1CCn2cc(-c3ccc(Cl)cc3)nc2[C@@H]1CC1CCCCC1` returned an inhibition of 26.5%. The IC50 came out at 10.1 µM in series [2] and 9.4 µM in series [3].
Regarding `CC[C@H](C)[C@H](N)C(=O)N1CCn2cc(-c3cccc(C#N)c3)nc2[C@@H]1CC1CCCCC1`, in series [1], the inhibition amounted to 20.8%. For the same molecule, the figures for the IC50 in series [2] and in series [3] were 9.9 µM and 34.5 µM, respectively.
Molecule `CC(C)C[C@H](N)CN1CCn2cc(-c3ccc4c(c3)CCCC4)nc2[C@@H]1CC1CCCCC1` returned an inhibition in series [1] of 15.7%. Moreover, the IC50 came to 7.5 µM in series [2] and 3.1 µM in series [3]. Also, the Activity entry with HEK-293T and with BEAS-2B was “Toxic” each time.
With `CC[C@H](C)[C@H](N)C(=O)N1CCn2cc(-c3ccc(Cl)c(Cl)c3)nc2[C@@H]1CC1CCCCC1`, the inhibition in series [1] was 13.2%. In addition, the IC50 was 9.9 µM in series [2] and 6.6 µM in series [3].
For the molecule `CC(C)(C)NCCN1CCn2cc(-c3ccc4c(c3)CCCC4)nc2[C@@H]1CC1CCCCC1`, the inhibition in series [1] is 6.9%. For the same molecule, the results for the IC50 in series [2] and in series [3] were 8.7 µM and 5.2 µM, respectively.
The like results for `CC[C@H](C)[C@H](N)C(=O)N1CCn2cc(-c3cccc(Cl)c3)nc2[C@@H]1CC1CCCCC1` were, in that order, 26.2%, 11.2 µM and 10 µM.
For `c1cc2c(cc1-c1cn3c(n1)[C@H](CC1CCCCC1)N(CCNC1CCCC1)CC3)CCCC2` the same measures were 10.8%, 9.7 µM and 6.4 µM.
For `CC[C@H](C)[C@H](N)C(=O)N1CCn2cc(-c3ccccc3C)nc2[C@@H]1CC1CCCCC1` the same measures were 15%, 7.1 µM and 8.8 µM.
As to `CC[C@H](C)[C@H](N)C(=O)N1CCn2cc(-c3cccc(OC(F)(F)F)c3)nc2[C@@H]1CC1CCCCC1`, in series [1], the inhibition amounted to 12.4%. Further, the IC50 in series [2] and in series [3] was more than 40 µM throughout.
In turn, `CN1CCN(CCN2CCn3cc(-c4ccc5c(c4)CCCC5)nc3[C@@H]2CC2CCCCC2)CC1` registered an inhibition in series [1] of 8.9%. For the same molecule, the IC50 in series [2] came to 11 µM; in series [3], 6.5 µM.
In turn, `CC[C@H](C)[C@H](N)C(=O)N1CCn2cc(-c3cccc(S(C)(=O)=O)c3)nc2[C@@H]1CC1CCCCC1` showed an inhibition in series [1] of 13%. In addition, the IC50 in series [2] and in series [3] was more than 40 µM in each case.
With `CC[C@H](C)[C@H](N)C(=O)N1CCn2cc(-c3ccc4c(c3)CCCC4)nc2[C@@H]1C1CCCCC1`, the inhibition in series [1] was 10.4%. Moreover, the IC50 was 8.4 µM in series [2] and 9.3 µM in series [3].
For `CC[C@H](C)[C@H](N)C(=O)N1CCn2cc(-c3cc(Cl)ccc3Cl)nc2[C@@H]1CC1CCCCC1` the same measures were 10.2%, 11 µM and 6.8 µM.
For `CC[C@H](C)[C@H](N)C(=O)N1CCn2cc(-c3cccc(C(=O)O)c3)nc2[C@@H]1CC1CCCCC1` the same measures were 8.5%, more than 40 µM and more than 40 µM.
With `c1cc2c(cc1-c1cn3c(n1)[C@H](CC1CCCCC1)N(CCN1CCCCC1)CC3)CCCC2`, the inhibition in series [1] was determined as 6.8%. In addition, the IC50 in series [2] turned out to be 12.8 µM; in series [3] it was 6.8 µM.
Consider `CC[C@H](C)[C@H](N)C(=O)N1CCn2cc(-c3ccccc3)nc2[C@@H]1CC1CCCCC1`, for which the inhibition in series [1] worked out at 26.6%. Besides, the IC50 came to 24.1 µM in series [2] and 10.5 µM in series [3].
The like results for `CC[C@H](C)[C@H](N)C(=O)N1CCn2cc(-c3ccc(C)cc3)nc2[C@@H]1CC1CCCCC1` were, in that order, 31.9%, 10.9 µM and 9.7 µM.
As to `CC[C@H](C)[C@H](N)C(=O)N1CCn2cc(-c3cccc(Cl)c3Cl)nc2[C@@H]1CC1CCCCC1`, the inhibition in series [1] stood at 19.9%. In addition, the IC50 in series [2] turned out to be 9.2 µM; in series [3], 13.8 µM.
`CC[C@H](C)[C@H](N)C(=O)N1CCn2cc(-c3cccc([N+](=O)[O-])c3)nc2[C@@H]1CC1CCCCC1` returned an inhibition in series [1] of 17.5%. The IC50 in series [2] came to 10.1 µM; in series [3], 12.2 µM.
The like results for `CC[C@H](C)[C@H](N)C(=O)N1CCn2cc(-c3cccc(I)c3)nc2[C@@H]1CC1CCCCC1` were, in that order, 19.4%, 18.1 µM and 9.1 µM.
The like results for `CC[C@H](C)[C@H](N)C(=O)N1CCn2cc(-c3cccc(N)c3)nc2[C@@H]1CC1CCCCC1` were, in that order, 10.8%, more than 40 µM and more than 40 µM.
The like results for `CC[C@H](C)[C@H](N)C(=O)N1CCn2cc(-c3ccc4c(c3)CCCC4)nc2[C@H]1C(C)C` were, in that order, 10.3%, 21.4 µM and 11.6 µM.
The molecule `CC[C@H](C)[C@H](N)C(=O)N1CCn2cc(-c3cccc(F)c3F)nc2[C@@H]1CC1CCCCC1` came in with an inhibition in series [1] of 16.3%. The IC50 in series [2] is 25.9 µM; in series [3], 3.2 µM.
The molecule `CC[C@H](C)[C@H](N)CN1CCn2cc(-c3ccc4c(c3)CCCC4)nc2[C@@H]1CC1CCCCC1` showed an inhibition in series [1] of 11.9%. The IC50 in series [2] amounted to 17.4 µM; in series [3], 4.8 µM.
As to `CN1CCC[C@H]1CN1CCn2cc(-c3ccc4c(c3)CCCC4)nc2[C@@H]1CC1CCCCC1`, the inhibition in series [1] was determined as 19%. Besides, the results for the IC50 in series [2] and in series [3] were 15.2 µM and 5 µM, respectively.
The like results for `CN(C)CCN1CCn2cc(-c3ccc4c(c3)CCCC4)nc2[C@@H]1CC1CCCCC1` were, in that order, 17.1%, 9.3 µM and 4.9 µM.
Take `CC[C@H](C)[C@H](N)C(=O)N1CCn2cc(-c3ccc(Cl)c(C)c3)nc2[C@@H]1CC1CCCCC1`: the inhibition in series [1] stood at 7.4%. Further, the IC50 in series [2] came to 5.8 µM; in series [3], 8.2 µM.
In turn, `CC[C@H](C)[C@H](N)C(=O)N1CCn2cc(-c3cc(F)cc(Cl)c3)nc2[C@@H]1CC1CCCCC1` had an inhibition in series [1] of 16.8%. The IC50 in series [2] came out at 10.9 µM; in series [3] it was 12.9 µM.
In series [1], `CC[C@H](C)[C@H](N)C(=O)N1CCn2cc(-c3ccc4c(c3)CCCC4)nc2[C@@H]1C(C)C` showed an inhibition of 9.4%. Further, the results for the IC50 in series [2] and in series [3] were 19.8 µM and 13 µM, respectively.
Take `CC[C@H](C)[C@H](N)C(=O)N1CCn2cc(-c3ccc4c(c3)CCCC4)nc2[C@@H]1CC`: in series [1], the inhibition was 11.5%. The values for the IC50 in series [2] and in series [3] were 30.2 µM and 22.3 µM, respectively.
In series [1], `CC[C@H](C)[C@H](N)C(=O)N1CCn2cc(-c3cc(Cl)cc(Cl)c3)nc2[C@@H]1CC1CCCCC1` had an inhibition of 12.8%. The IC50 in series [2] came out at 10.9 µM; in series [3] it was 10.1 µM.
In the case of `CC[C@H](C)[C@H](N)C(=O)N1CCn2cc(-c3cccc(Cl)c3OC)nc2[C@@H]1CC1CCCCC1`, the inhibition in series [1] is 24.2%. In addition, the values for the IC50 in series [2] and in series [3] were 7.9 µM and 11.3 µM, respectively.

As a reminder, the inhibition is the drop in the measured response relative to a control, in per cent. Higher therefore signals a strong effect. Usually IC50 stands for the point on the concentration scale where inhibition reaches its midpoint.
